What was measured:
[1] = Lipophilicity, log P of the compound; type: physicochemical; settings: octanol/water
[2] = Apparent permeability in human Caco2 cells; type: ADME, cell-based; settings: Caco-2

- logP [1]: 2.6
- Papp [2]: 390 nm/s
SMILES: CC(C)(C)C(=O)Nc1ncnc2c1cnn2CCN1CCCCC1

Source: ChEMBL document CHEMBL4261507, “Pyrazolo[3,4-d]pyrimidines as sigma-1 receptor ligands for the treatment of pain. Part 1: 4-acylamino derivatives” (Medchemcomm, 2017)
